Where two headings read alike, the source gives them in different places.
Tests used:
[1] = test system: Haemophilus influenzae Holt; experiment: MIC, standard agar-dilution assay (Table II); assay type: cell-based; parameters: unit not given here; conditions: ampicillin-sensitive strain
Method: (§1) The MIC's in Table II were determined by standard agar-dilution assays. The MIC's in Table III were obtained using a conventional broth-dilution microtiter test.

[2] = test system: Haemophilus influenzae R252; experiment: MIC, standard agar-dilution assay (Table II); assay type: cell-based; parameters: unit not given here; conditions: Haemophilus influenzae R252, ampicillin-resistant strain
Method: as §1

[3] = test system: Staphylococcus aureus S13E; experiment: MIC, standard agar-dilution assay (Table II); assay type: cell-based; parameters: unit not given here
Method: as §1

[4] = test system: Staphylococcus aureus V41; experiment: MIC, standard agar-dilution assay (Table II); assay type: cell-based; parameters: unit not given here; conditions: Staphylococcus aureus V41, penicillin-resistant strain
Method: as §1

[5] = test system: Staphylococcus aureus X1.1; experiment: MIC, standard agar-dilution assay (Table II); assay type: cell-based; parameters: unit not given here
Method: as §1

[6] = test system: Staphylococcus aureus X400; experiment: MIC, standard agar-dilution assay (Table II); assay type: cell-based; parameters: unit not given here; conditions: Staphylococcus aureus X400, methicillin-resistant strain
Method: as §1

[7] = test system: Staphylococcus epidermidis EPI1; experiment: MIC, standard agar-dilution assay (Table II); assay type: cell-based; parameters: unit not given here
Method: as §1

[8] = test system: Staphylococcus epidermidis EPI2; experiment: MIC, standard agar-dilution assay (Table II); assay type: cell-based; parameters: unit not given here
Method: as §1

[9] = test system: Streptococcus Group D 9960; experiment: MIC, standard agar-dilution assay (Table II); assay type: cell-based; parameters: unit not given here
Method: as §1

[10] = test system: Streptococcus Group D X66; experiment: MIC, standard agar-dilution assay (Table II); assay type: cell-based; parameters: unit not given here
Method: as §1

[11] = test system: Streptococcus pneumoniae Park I; experiment: MIC, standard agar-dilution assay (Table II); assay type: cell-based; parameters: unit not given here
Method: as §1

[12] = test system: Streptococcus pyogenes C203; experiment: MIC, standard agar-dilution assay (Table II); assay type: cell-based; parameters: unit not given here
Method: as §1

Mycoplasma gallisepticum = experiment: MIC, broth-dilution microtiter test (Table III); assay type: cell-based; parameters: unit not given here
Method: as §1

Mycoplasma hyorhinis = experiment: MIC, broth-dilution microtiter test (Table III); assay type: cell-based; parameters: unit not given here
Method: as §1

Mycoplasma synoviae = experiment: MIC, broth-dilution microtiter test (Table III); assay type: cell-based; parameters: unit not given here
Method: as §1

[13] = test system: Pasteurella haemolytica 22C; experiment: MIC, broth-dilution microtiter test (Table III); assay type: cell-based; parameters: unit not given here
Method: as §1

[14] = test system: Pasteurella haemolytica 23C; experiment: MIC, broth-dilution microtiter test (Table III); assay type: cell-based; parameters: unit not given here
Method: as §1

[15] = test system: Pasteurella haemolytica 41D; experiment: MIC, broth-dilution microtiter test (Table III); assay type: cell-based; parameters: unit not given here
Method: as §1

[16] = test system: Pasteurella multocida 17E; experiment: MIC, broth-dilution microtiter test (Table III); assay type: cell-based; parameters: unit not given here; conditions: bovine isolate
Method: as §1

[17] = test system: Pasteurella multocida 22A; experiment: MIC, broth-dilution microtiter test (Table III); assay type: cell-based; parameters: unit not given here
Method: as §1

[18] = test system: Pasteurella multocida 40G; experiment: MIC, broth-dilution microtiter test (Table III); assay type: cell-based; parameters: unit not given here
Method: as §1

[19] = test system: Pasteurella multocida 60A; experiment: MIC, broth-dilution microtiter test (Table III); assay type: cell-based; parameters: unit not given here; conditions: avian isolate
Method: as §1

[20] = test system: Pasteurella multocida 68C; experiment: MIC, broth-dilution microtiter test (Table III); assay type: cell-based; parameters: unit not given here
Method: as §1

Staphylococcus aureus = experiment: MIC, broth-dilution microtiter test (Table III); assay type: cell-based; parameters: unit not given here
Method: as §1

Streptococcus sp. 80 = experiment: MIC, broth-dilution microtiter test (Table III); assay type: cell-based; parameters: unit not given here
Method: as §1

[21] = test system: Streptococcus pyogenes C203; experiment: ED50 in mice with experimental infections (Table IV); assay type: in vivo; conditions: Streptococcus pyogenes, doses given 1 and 4 hours postinfection
Procedure, shortened: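 Read-out is ED50, the mg/kg dose protecting half of infected mice; values refer to each of two doses, given 1 and 4 hours after infection.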

Pasteurella multocida = experiment: Treatment of Pasteurella infections in chicks (Table V); assay type: in vivo, one-day-old chicks; conditions: Pasteurella multocida, sc, 4 h; 30 mg/kg by subcutaneous injection one and four hours post challenge; read-out: Deaths in Treated Chicks/Number Treated (converted)
Procedure, shortened: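 Dosing was 30 mg/kg by subcutaneous injection, one and four hours after challenge. Day-old chicks received 0.1 ml of a 10^-3 dilution of a 20-hour tryptose broth culture of avian P. multocida subcutaneously. Nonmedicated infected chicks served as controls, ten per group.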

[22] = C203, oral, read-out: ED50, Oral
[23] = C203, sc, subcutaneous, read-out: ED50, Subcutaneous

## CCC1OC(=O)CC(O)C(C)C(OC2OC(C)C(O)C(N(C)C)C2OC(C)=O)C(CC=O)CC(C)C(=O)C=CC(C)=CC1CO (stereo not drawn) [Compound 1, 2'-O-Acetyl-OMT]
[1]
  minimal inhibitory concentration (MIC): 4
[2]
  minimal inhibitory concentration (MIC): 4
[3]
  minimal inhibitory concentration (MIC): 4
[4]
  minimal inhibitory concentration (MIC): 4
[5]
  minimal inhibitory concentration (MIC): 2
[6]
  minimal inhibitory concentration (MIC): 4
[7]
  minimal inhibitory concentration (MIC): 2
[8]
  minimal inhibitory concentration (MIC): 2
[9]
  minimal inhibitory concentration (MIC): 4
[10]
  minimal inhibitory concentration (MIC): 2
[11]
  minimal inhibitory concentration (MIC): 0.5
[12]
  minimal inhibitory concentration (MIC): 0.5
Mycoplasma gallisepticum
  minimal inhibitory concentration (MIC): 0.39
Mycoplasma hyorhinis
  minimal inhibitory concentration (MIC): 3.12
Mycoplasma synoviae
  minimal inhibitory concentration (MIC): 0.39
[13]
  minimal inhibitory concentration (MIC): 12.5
[14]
  minimal inhibitory concentration (MIC): 12.5
[15]
  minimal inhibitory concentration (MIC): 12.5
[16]
  minimal inhibitory concentration (MIC): 1.56
[17]
  minimal inhibitory concentration (MIC): 3.12
[18]
  minimal inhibitory concentration (MIC): 6.25
[19]
  minimal inhibitory concentration (MIC): 1.56
[20]
  minimal inhibitory concentration (MIC): 3.12
Staphylococcus aureus
  minimal inhibitory concentration (MIC): 1.56
Streptococcus sp. 80
  minimal inhibitory concentration (MIC): 0.78
[21]; [22]
  ED50: > 150 mg/kg
[21]; [23]
  ED50: 6.8 mg/kg
Pasteurella multocida
  mortality at 30 mg/kg: 0%

## CCC1OC(=O)CC(O)C(C)C(OC2OC(C)C(OC(C)=O)C(N(C)C)C2OC(C)=O)C(CC=O)CC(C)C(=O)C=CC(C)=CC1CO (stereo not drawn) [Compound 3, 2',4'-Di-O-acetyl-OMT]
[1]
  minimal inhibitory concentration (MIC): 2
[2]
  minimal inhibitory concentration (MIC): 4
[3]
  minimal inhibitory concentration (MIC): 2
[4]
  minimal inhibitory concentration (MIC): 4
[5]
  minimal inhibitory concentration (MIC): 2
[6]
  minimal inhibitory concentration (MIC): 4
[7]
  minimal inhibitory concentration (MIC): 1
[8]
  minimal inhibitory concentration (MIC): 1
[9]
  minimal inhibitory concentration (MIC): 2
[10]
  minimal inhibitory concentration (MIC): 2
[11]
  minimal inhibitory concentration (MIC): 0.25
[12]
  minimal inhibitory concentration (MIC): 0.5
Mycoplasma gallisepticum
  minimal inhibitory concentration (MIC): 0.78
Mycoplasma hyorhinis
  minimal inhibitory concentration (MIC): 3.12
Mycoplasma synoviae
  minimal inhibitory concentration (MIC): 0.195
[13]
  minimal inhibitory concentration (MIC): 12.5
[14]
  minimal inhibitory concentration (MIC): 6.25
[15]
  minimal inhibitory concentration (MIC): 6.25
[16]
  minimal inhibitory concentration (MIC): 3.12
[17]
  minimal inhibitory concentration (MIC): 3.12
[18]
  minimal inhibitory concentration (MIC): 6.25
[19]
  minimal inhibitory concentration (MIC): 3.12
[20]
  minimal inhibitory concentration (MIC): 1.56
Staphylococcus aureus
  minimal inhibitory concentration (MIC): 1.56
Streptococcus sp. 80
  minimal inhibitory concentration (MIC): < 0.78
[21]; [22]
  ED50: 139 mg/kg
[21]; [23]
  ED50: > 15 mg/kg
Pasteurella multocida
  mortality at 30 mg/kg: 0%

## CCC1OC(=O)CC(O)C(C)C(OC2OC(C)C(OC(C)=O)C(N(C)C)C2OC(C)=O)C(CC=O)CC(C)C(=O)C=CC(C)=CC1COC(C)=O (stereo not drawn) [Compound 7, 2',4',23-Tri-O-acetyl-OMT]
[1]
  minimal inhibitory concentration (MIC): 2
[2]
  minimal inhibitory concentration (MIC): 8
[3]
  minimal inhibitory concentration (MIC): 1
[4]
  minimal inhibitory concentration (MIC): 1
[5]
  minimal inhibitory concentration (MIC): 0.5
[6]
  minimal inhibitory concentration (MIC): 1
[7]
  minimal inhibitory concentration (MIC): 0.5
[8]
  minimal inhibitory concentration (MIC): 0.5
[9]
  minimal inhibitory concentration (MIC): 1
[10]
  minimal inhibitory concentration (MIC): 1
[11]
  minimal inhibitory concentration (MIC): 0.125
[12]
  minimal inhibitory concentration (MIC): 0.5
Mycoplasma gallisepticum
  minimal inhibitory concentration (MIC): 0.39
Mycoplasma hyorhinis
  minimal inhibitory concentration (MIC): 3.12
Mycoplasma synoviae
  minimal inhibitory concentration (MIC): 0.39
[13]
  minimal inhibitory concentration (MIC): 6.25
[14]
  minimal inhibitory concentration (MIC): 6.25
[15]
  minimal inhibitory concentration (MIC): 6.25
[16]
  minimal inhibitory concentration (MIC): 3.12
[17]
  minimal inhibitory concentration (MIC): 3.12
[18]
  minimal inhibitory concentration (MIC): 1.56
[19]
  minimal inhibitory concentration (MIC): 3.12
[20]
  minimal inhibitory concentration (MIC): 1.56
Staphylococcus aureus
  minimal inhibitory concentration (MIC): 0.78
Streptococcus sp. 80
  minimal inhibitory concentration (MIC): 0.195
[21]; [22]
  ED50: 100 mg/kg
[21]; [23]
  ED50: > 15 mg/kg
Pasteurella multocida
  mortality at 30 mg/kg: 50%

## CCC1OC(=O)CC(O)C(C)C(OC2OC(C)C(O)C(N(C)C)C2O)C(CC=O)CC(C)C(=O)C=CC(C)=CC1COC(=O)COc1ccccc1 (stereo not drawn) [Compound 36, 23-O-Phenoxyacetyl-OMT]
[1]
  minimal inhibitory concentration (MIC): 0.5
[2]
  minimal inhibitory concentration (MIC): 0.5
[3]
  minimal inhibitory concentration (MIC): 0.125
[4]
  minimal inhibitory concentration (MIC): 0.25
[5]
  minimal inhibitory concentration (MIC): 0.125
[6]
  minimal inhibitory concentration (MIC): 0.25
[7]
  minimal inhibitory concentration (MIC): 0.125
[8]
  minimal inhibitory concentration (MIC): 0.25
[9]
  minimal inhibitory concentration (MIC): 0.125
[10]
  minimal inhibitory concentration (MIC): 0.125
[11]
  minimal inhibitory concentration (MIC): 0.03
[12]
  minimal inhibitory concentration (MIC): 0.06
Mycoplasma gallisepticum
  minimal inhibitory concentration (MIC): < 0.05
Mycoplasma hyorhinis
  minimal inhibitory concentration (MIC): 1.56
[13]
  minimal inhibitory concentration (MIC): 3.12
[14]
  minimal inhibitory concentration (MIC): 3.12
[15]
  minimal inhibitory concentration (MIC): 3.12
[16]
  minimal inhibitory concentration (MIC): 1.56
[17]
  minimal inhibitory concentration (MIC): 3.12
[18]
  minimal inhibitory concentration (MIC): 1.56
[19]
  minimal inhibitory concentration (MIC): 1.56
[20]
  minimal inhibitory concentration (MIC): 0.78
Staphylococcus aureus
  minimal inhibitory concentration (MIC): 0.39
Streptococcus sp. 80
  minimal inhibitory concentration (MIC): < 0.05
[21]; [22]
  ED50: > 150 mg/kg
[21]; [23]
  ED50: 6 mg/kg
Pasteurella multocida
  mortality at 30 mg/kg: 10%

## CCC1OC(=O)CC(O)C(C)C(OC2OC(C)C(O)C(N(C)C)C2O)C(CC=O)CC(C)C(=O)C=CC(C)=CC1COC(=O)[C@H](NC(=O)OC(C)(C)C)c1ccccc1 (stereo partly drawn) [Compound 40, 23-O-(D-t-BOC-Phenylglycyl)-OMT]
[1]
  minimal inhibitory concentration (MIC): 2
[2]
  minimal inhibitory concentration (MIC): 2
[3]
  minimal inhibitory concentration (MIC): 0.5
[4]
  minimal inhibitory concentration (MIC): 1
[5]
  minimal inhibitory concentration (MIC): 0.5
[6]
  minimal inhibitory concentration (MIC): 1
[7]
  minimal inhibitory concentration (MIC): 0.5
[8]
  minimal inhibitory concentration (MIC): 0.5
[9]
  minimal inhibitory concentration (MIC): 0.5
[10]
  minimal inhibitory concentration (MIC): 0.5
[11]
  minimal inhibitory concentration (MIC): 0.06
[12]
  minimal inhibitory concentration (MIC): 0.125
Mycoplasma gallisepticum
  minimal inhibitory concentration (MIC): < 0.05
Mycoplasma hyorhinis
  minimal inhibitory concentration (MIC): 0.39
[13]
  minimal inhibitory concentration (MIC): 12.5
[14]
  minimal inhibitory concentration (MIC): 12.5
[15]
  minimal inhibitory concentration (MIC): 12.5
[16]
  minimal inhibitory concentration (MIC): 6.25
[17]
  minimal inhibitory concentration (MIC): 12.5
[18]
  minimal inhibitory concentration (MIC): 6.25
[19]
  minimal inhibitory concentration (MIC): 6.25
[20]
  minimal inhibitory concentration (MIC): 6.25
Staphylococcus aureus
  minimal inhibitory concentration (MIC): 0.78
Streptococcus sp. 80
  minimal inhibitory concentration (MIC): 0.195
[21]; [22]
  ED50: 116 mg/kg
[21]; [23]
  ED50: 5 mg/kg
Pasteurella multocida
  mortality at 30 mg/kg: 100%
